# From ChEMBL document CHEMBL1201862, “PubChem BioAssay data set” (2004)
#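 Method: 48-hour compound exposure of cells in 96-well plates, five concentrations, linear interpolation of endpoints. The concentration for 50% growth inhibition is given as GI50.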 Activity calls are given as the source filed them. Rule as the data show it: active = GI50 up to about 1.1 µM and inactive = higher.
# Columns and labels:
# Test in all cases: growth of human tumour cells (NCI), 48 h
# Hs-578T = test system: Hs-578T
# OVCAR-4 = test system: OVCAR-4
# UO-31 = test system: UO-31
# HCT-15 = test system: HCT-15
# SK-MEL-28 = test system: SK-MEL-28
# SR = test system: SR
# HCT-116 = test system: HCT-116
# PC-3 = test system: PC-3
# TK-10 = test system: TK-10
# NCI-H460 = test system: NCI-H460
# SN12C = test system: SN12C
# MDA-MB-435 = test system: MDA-MB-435
# T47D = test system: T47D
# SK-OV-3 = test system: SK-OV-3
# SF-268 = test system: SF-268
# CCRF-CEM = test system: CCRF-CEM
# CAKI-1 = test system: CAKI-1
# HL-60 = test system: HL-60
# UACC-257 = test system: UACC-257
Structure (SMILES),GI50 (Hs-578T),GI50 (OVCAR-4),GI50 (UO-31),GI50 (HCT-15),GI50 (SK-MEL-28),GI50 (SR),GI50 (HCT-116),GI50 (PC-3),GI50 (TK-10),GI50 (NCI-H460),GI50 (SN12C),GI50 (MDA-MB-435),GI50 (T47D),GI50 (SK-OV-3),GI50 (SF-268),GI50 (CCRF-CEM),GI50 (CAKI-1),GI50 (HL-60),GI50 (UACC-257)
O=C(O)C1(C(=O)O)CCN(S(=O)(=O)c2ccccc2)CC1,> 100 µM (inactive),> 100 µM (inactive),> 100 µM (inactive),> 100 µM,> 100 µM (inactive),> 100 µM (inactive),> 100 µM (inactive),> 100 µM (inactive),> 100 µM (inactive),> 100 µM (inactive),> 100 µM (inactive),> 100 µM (inactive),> 100 µM (inactive),> 100 µM (inactive),> 100 µM (inactive),> 100 µM (inactive),> 100 µM (inactive),> 100 µM (inactive),> 100 µM (inactive)
C=C(CCC(C)C1CCC2C3=C(C(=O)CC21C)C1(C)CCC(=O)[C@@H](C)C1CC3=O)C(C)C(=O)O (stereo not given in full),> 100 µM (inactive),48.1 µM (inactive),15.2 µM (inactive),77.8 µM,> 100 µM (inactive),35.2 µM (inactive),50.9 µM (inactive),33.6 µM (inactive),> 100 µM (inactive),34 µM (inactive),> 100 µM (inactive),65.6 µM (inactive),30.7 µM (inactive),0.51 µM (active),> 100 µM (inactive),22.2 µM (inactive),30.7 µM (inactive),14.7 µM (inactive),46.9 µM (inactive)
CCCCCCCC1c2cc3nc(cc4[nH]c(cc5nc(cc([nH]2)[C@@]1(C)CC(=O)N(C)C)C(C)=C5CCC(=O)O)c(CCC(=O)O)c4C)C=C3C (stereo not given in full),18.7 µM (inactive),32.8 µM (inactive),18.2 µM (inactive),20.3 µM,19.1 µM (inactive),19.9 µM (inactive),17.1 µM (inactive),23.8 µM (inactive),37.2 µM (inactive),20.8 µM (inactive),30.4 µM (inactive),30.2 µM (inactive),34.9 µM (inactive),40.6 µM (inactive),20.8 µM (inactive),18.8 µM (inactive),39 µM (inactive),23.7 µM (inactive),17.3 µM (inactive)
COC(=O)C1=NN2c3ccccc3CN([C@@H](C)c3ccccc3)C(=O)[C@@H]2[C@H]1c1ccccc1,> 100 µM (inactive),> 100 µM (inactive),> 100 µM (inactive),> 100 µM,> 100 µM (inactive),63 µM (inactive),> 100 µM (inactive),21.3 µM (inactive),> 100 µM (inactive),> 100 µM (inactive),> 100 µM (inactive),> 100 µM (inactive),9.75 µM (inactive),> 100 µM (inactive),> 100 µM (inactive),> 100 µM (inactive),> 100 µM (inactive),> 100 µM (inactive),> 100 µM (inactive)
CNC1C(O)C(NC)C2OC3(O)C(=O)CC(C)OC3OC2C1O (stereo not given),> 100 µM (inactive),> 100 µM (inactive),> 100 µM (inactive),> 100 µM,> 100 µM (inactive),> 100 µM (inactive),> 100 µM (inactive),> 100 µM (inactive),> 100 µM (inactive),> 100 µM (inactive),> 100 µM (inactive),> 100 µM (inactive),> 100 µM (inactive),> 100 µM (inactive),> 100 µM (inactive),> 100 µM (inactive),> 100 µM (inactive),> 100 µM (inactive),> 100 µM (inactive)
CC(=O)CC(O)(C(F)(F)Cl)C(F)(F)Cl,> 10 µM (inactive),> 10 µM (inactive),> 10 µM (inactive),> 10 µM,> 10 µM (inactive),> 10 µM (inactive),> 10 µM (inactive),> 10 µM (inactive),> 10 µM (inactive),> 10 µM (inactive),> 10 µM (inactive),> 10 µM (inactive),> 10 µM (inactive),> 10 µM (inactive),> 10 µM (inactive),> 10 µM (inactive),> 10 µM (inactive),> 10 µM (inactive),> 10 µM (inactive)
CCOc1nc(N)nc(C)c1/N=N/c1ccc(Cl)cc1,0.124 µM (active),> 100 µM (inactive),45 µM (inactive),> 100 µM,> 100 µM (inactive),1.86 µM (inactive),> 100 µM (inactive),82.8 µM (inactive),> 100 µM (inactive),> 100 µM (inactive),14.1 µM (inactive),> 100 µM (inactive),73.8 µM (inactive),> 100 µM (inactive),> 100 µM (inactive),41.3 µM (inactive),> 100 µM (inactive),> 100 µM (inactive),> 100 µM (inactive)
CC(C)NC(=O)OCc1c(COC(=O)NC(C)C)c(-c2ccc[n+](COC(=O)C(C)C)c2)n2c1CCC2,> 100 µM (inactive),> 87.3 µM (inactive),52.4 µM (inactive),> 71.9 µM,> 100 µM (inactive),8.53 µM (inactive),54.7 µM (inactive),59.3 µM (inactive),> 91.4 µM (inactive),21.6 µM (inactive),37.5 µM (inactive),> 100 µM (inactive),> 81.3 µM (inactive),> 100 µM (inactive),52.4 µM (inactive),17.2 µM (inactive),17.3 µM (inactive),16 µM (inactive),> 100 µM (inactive)
CC(=O)C1=C(C)N(c2ccccc2)C2(O)C3=C(C(=O)c4ccccc4C3=O)C(O)=CC12Cl (stereo not given),4.01 µM (inactive),3.08 µM (inactive),5.07 µM (inactive),3.73 µM,6.73 µM (inactive),2.42 µM (inactive),5.96 µM (inactive),7.28 µM (inactive),14.4 µM (inactive),5.26 µM (inactive),4.46 µM (inactive),2.32 µM (inactive),35.2 µM (inactive),49.7 µM (inactive),6.73 µM (inactive),0.65 µM (active),4.05 µM (inactive),2.9 µM (inactive),4.71 µM (inactive)
CCN(CC)C(=S)N/N=C(/C)c1cccc(/C(C)=N\NC(=S)N(CC)CC)n1,5.64 µM (inactive),1.25 µM (inactive),1.95 µM (inactive),2.3 µM,1.21 µM (inactive),0.32 µM (active),2.8 µM (inactive),3.15 µM (inactive),1.27 µM (inactive),1.53 µM (inactive),2.79 µM (inactive),3.35 µM (inactive),4.88 µM (inactive),1.96 µM (inactive),0.334 µM (active),0.389 µM (active),1.29 µM (inactive),0.055 µM (active),2.2 µM (inactive)
N#Cc1nc(C#N)c(N)[nH]1,> 100 µM (inactive),> 100 µM (inactive),> 100 µM (inactive),> 100 µM,> 100 µM (inactive),> 100 µM (inactive),> 100 µM (inactive),> 100 µM (inactive),> 100 µM (inactive),> 100 µM (inactive),> 100 µM (inactive),> 100 µM (inactive),> 100 µM (inactive),> 100 µM (inactive),> 100 µM (inactive),> 100 µM (inactive),> 100 µM (inactive),> 100 µM (inactive),> 100 µM (inactive)
Cc1ccc(S(=O)(=O)c2c(O)c3ccc(O)c(C)c3oc2=O)cc1,> 100 µM (inactive),> 100 µM (inactive),> 100 µM (inactive),> 100 µM,> 100 µM (inactive),> 100 µM (inactive),> 100 µM (inactive),> 100 µM (inactive),> 100 µM (inactive),> 100 µM (inactive),> 100 µM (inactive),> 100 µM (inactive),> 100 µM (inactive),> 100 µM (inactive),> 100 µM (inactive),> 100 µM (inactive),> 100 µM (inactive),23.4 µM (inactive),> 100 µM (inactive)
COC(=O)C1=C(O)C(C(=O)OC)[C@@]2(O)[C@@H](C(=O)OC)C(c3ccc(OC(=O)/C=C/c4ccccc4)cc3)C[C@@H]1[C@@H]2C(=O)OC (stereo not given in full),68.4 µM (inactive),6.18 µM (inactive),10.6 µM (inactive),3.89 µM,20 µM (inactive),3.02 µM (inactive),4.24 µM (inactive),6.84 µM (inactive),6.82 µM (inactive),2.64 µM (inactive),7.11 µM (inactive),4.83 µM (inactive),8.49 µM (inactive),75.5 µM (inactive),9.79 µM (inactive),2.68 µM (inactive),7.36 µM (inactive),4.55 µM (inactive),7.23 µM (inactive)
Brc1ccc(/N=N/N2CCCC2)cc1,> 100 µM (inactive),> 100 µM (inactive),32.4 µM (inactive),50.7 µM,> 100 µM (inactive),34.6 µM (inactive),58.6 µM (inactive),31.8 µM (inactive),82.4 µM (inactive),48.2 µM (inactive),59 µM (inactive),48.1 µM (inactive),14.4 µM (inactive),> 100 µM (inactive),95.1 µM (inactive),42 µM (inactive),27.7 µM (inactive),38.8 µM (inactive),93.8 µM (inactive)
CN(C)CCn1c(=O)c2ccc(NCCNCCO)c3c(=O)c4cc(O)ccc4n(c1=O)c23,0.667 µM (active),0.895 µM (active),3.05 µM (inactive),5.31 µM,4.43 µM (inactive),< 0.0352 µM (active),0.664 µM (active),1.69 µM (inactive),4.63 µM (inactive),0.655 µM (active),0.308 µM (active),2.39 µM (inactive),2.31 µM (inactive),5.55 µM (inactive),0.393 µM (active),0.258 µM (active),0.938 µM (active),1.47 µM (inactive),4.43 µM (inactive)
